Measured values taken from article PMC9596378, “Discovery and molecular basis of subtype-selective cyclophilin inhibitors” (Nature Chemical Biology, 2022).

Tests used:
Test in all cases: Anisotropy (fluorescence polarization) binding assay
CypA = target: T1, CypA (Homo sapiens, UniProt P62937); settings: 0.5 nM fluorescein-labeled macrocycle
T1 construct: PPIA (UniProtKB Entry P62937: residues 1–165); made in house; host or cells: E. coli BL21(DE3)
Description: (§1) Final assay volume was 100 µL with 0.25% DMSO. Fluorescence anisotropy was then measured using a Tecan Spark plate reader using 492 nm/523 nm excitation/emission settings.

CypB = target: T2, CypB (Homo sapiens, UniProt P23284); settings: 0.5 nM fluorescein-labeled macrocycle
T2 construct: PPIB (UniProtKB Entry P23284: residues 34–216); His6 with TEV site (2BT vector leader) (N); made in house; host or cells: E. coli BL21(DE3)
Description: as §1

CypC = target: T3, CypC (Homo sapiens, UniProt P45877); settings: 0.5 nM fluorescein-labeled macrocycle
T3 construct: PPIC (UniProtKB Entry P45877: residues 24–212); host or cells: E. coli BL21(DE3)
Description: as §1

CypE = target: T4, CypE (Homo sapiens, UniProt Q9UNP9); settings: 0.5 nM fluorescein-labeled macrocycle
T4 construct: PPIE (UniProtKB Entry Q9UNP9: residues 131–301); host or cells: E. coli BL21(DE3)
Description: as §1

CypE K212A = target: T5, CypE K212A (Homo sapiens, UniProt Q9UNP9, K212A); settings: 0.5 nM A26-Fl
T5 construct: Lane 4- GS-CypE K212A (131-301);; His6 tag with thrombin site (pET28a LIC); GS remnant stays on the N-terminus (N, cleaved yes); host or cells: E. coli BL21(DE3)
Description: as §1

CypE K217A = target: T6, CypE K217A (Homo sapiens, UniProt Q9UNP9, K217A); settings: 0.5 nM A26-Fl
T6 construct: Lane 5- GS-CypE K217A (131-301);; His6 tag with thrombin site (pET28a LIC); GS remnant stays on the N-terminus (N, cleaved yes); host or cells: E. coli BL21(DE3)
Description: as §1

CypE K218A = target: T7, CypE K218A (Homo sapiens, UniProt Q9UNP9, K218A); settings: 0.5 nM A26-Fl
T7 construct: Lane 6- GS-CypE K218A (131-301);; His6 tag with thrombin site (pET28a LIC); GS remnant stays on the N-terminus (N, cleaved yes); host or cells: E. coli BL21(DE3)
Description: as §1

CypG = target: T8, CypG (Homo sapiens, UniProt Q13427); settings: 0.5 nM fluorescein-labeled macrocycle
T8 construct: PPIG (UniProtKB Entry Q13427: residues 1–179); His6 with thrombin site (pET28a LIC leader) (N); host or cells: E. coli BL21(DE3)
T8 sequence (Q13427 1-179): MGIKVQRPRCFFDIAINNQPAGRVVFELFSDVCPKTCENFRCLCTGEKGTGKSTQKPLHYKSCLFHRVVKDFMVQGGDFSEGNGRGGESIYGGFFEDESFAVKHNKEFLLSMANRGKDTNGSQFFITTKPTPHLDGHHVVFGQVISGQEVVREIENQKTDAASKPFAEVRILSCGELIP
Description: as §1

CypH = target: T9, CypH (Homo sapiens, UniProt O43447); settings: 0.5 nM fluorescein-labeled macrocycle
T9 construct: PPIH (UniProtKB Entry O43447: residues 1–177); His6 with TEV site (2BT vector leader) (N); made in house; host or cells: E. coli BL21(DE3)
Description: as §1

NKTR = target: T10, NKTR (Homo sapiens, UniProt P30414); settings: 0.5 nM fluorescein-labeled macrocycle
T10 construct: NKTR (UniProtKB Entry P30414: residues 7–179); host or cells: E. coli BL21(DE3)
T10 sequence (P30414 7-179): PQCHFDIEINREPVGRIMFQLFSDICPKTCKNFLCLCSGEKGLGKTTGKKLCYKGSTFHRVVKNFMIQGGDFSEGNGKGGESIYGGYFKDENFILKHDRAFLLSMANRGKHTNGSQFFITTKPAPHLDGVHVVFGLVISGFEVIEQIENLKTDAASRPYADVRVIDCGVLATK
Description: as §1

PPIL1 = target: T11, PPIL1 (Homo sapiens, UniProt Q9Y3C6); settings: 0.5 nM fluorescein-labeled macrocycle
T11 construct: PPIL1 (UniProtKB Entry Q9Y3C6: residues 1–166); made in house; host or cells: E. coli BL21(DE3)
T11 sequence (Q9Y3C6 1-166): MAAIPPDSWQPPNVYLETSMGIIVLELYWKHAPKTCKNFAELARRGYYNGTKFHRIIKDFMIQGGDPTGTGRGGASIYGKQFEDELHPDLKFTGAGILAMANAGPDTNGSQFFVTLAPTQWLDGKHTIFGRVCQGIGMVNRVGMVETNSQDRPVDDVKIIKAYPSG
Description: as §1

PPIL2 = target: T12, PPIL2 (Homo sapiens, UniProt Q13356); settings: 0.5 nM fluorescein-labeled macrocycle
T12 construct: PPIL2 (UniProtKB Entry Q13356: residues 280–457); His6 tag with thrombin site (pET28a LIC); GS remnant after cleavage (N, cleaved yes); host or cells: E. coli BL21(DE3)
Description: as §1

PPIL3 = target: T13, PPIL3 (Homo sapiens, UniProt Q9H2H8); settings: 0.5 nM fluorescein-labeled macrocycle
T13 construct: PPIL3 (UniProtKB Entry Q9H2H8: residues 1–161); His6 tag with TEV site (2BT vector); SNA remnant stays on the N-terminus (N, cleaved yes); made in house; host or cells: E. coli BL21(DE3)
Description: as §1

PPIL4(Full Length) = target: T14, PPIL4(Full Length) (Homo sapiens, UniProt Q8WUA2); settings: 0.5 nM fluorescein-labeled macrocycle
T14 construct: PPIL4 (full length); purchased Millipore-Sigma
Description: as §1

PPIL6(C-Myc/DDK) = target: T15, PPIL6(C-Myc/DDK) (Homo sapiens, UniProt Q8IXY8); settings: 0.5 nM fluorescein-labeled macrocycle
T15 construct: Myc; DDK (FLAG); purchased Millipore-Sigma
Description: as §1

PPWD1 = target: T16, PPWD1 (Homo sapiens, UniProt Q96BP3); settings: 0.5 nM fluorescein-labeled macrocycle
T16 construct: PPWD1 (UniProtKB Entry Q96BP3: residues 473–646); host or cells: E. coli BL21(DE3)
T16 sequence (Q96BP3 473-646): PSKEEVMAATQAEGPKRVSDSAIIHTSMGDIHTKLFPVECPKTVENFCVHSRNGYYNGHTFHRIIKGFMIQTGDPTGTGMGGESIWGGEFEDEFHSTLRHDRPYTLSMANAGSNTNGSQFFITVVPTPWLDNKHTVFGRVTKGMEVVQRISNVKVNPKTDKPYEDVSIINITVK
Description: as §1

SDCCAG-10(GST) = target: T17, SDCCAG-10(GST) (Homo sapiens, UniProt Q6UX04); settings: 0.5 nM fluorescein-labeled macrocycle
T17 construct: GST; purchased Abnova
Description: as §1

Cyp40 = Cyp40 (Homo sapiens, UniProt Q08752); parameters: PPID (UniProtKB Entry Q08752: residues 1–183); made in house; host or cells: E. coli BL21(DE3); settings: 0.5 nM fluorescein-labeled macrocycle
Description: as §1

CypD = CypD (Homo sapiens, UniProt P30405); parameters: PPIF (UniProtKB Entry P30405: residues 45–207); made in house; host or cells: E. coli BL21(DE3); settings: 0.5 nM fluorescein-labeled macrocycle
Description: as §1

T15 sequence (Q8IXY8 whole entry): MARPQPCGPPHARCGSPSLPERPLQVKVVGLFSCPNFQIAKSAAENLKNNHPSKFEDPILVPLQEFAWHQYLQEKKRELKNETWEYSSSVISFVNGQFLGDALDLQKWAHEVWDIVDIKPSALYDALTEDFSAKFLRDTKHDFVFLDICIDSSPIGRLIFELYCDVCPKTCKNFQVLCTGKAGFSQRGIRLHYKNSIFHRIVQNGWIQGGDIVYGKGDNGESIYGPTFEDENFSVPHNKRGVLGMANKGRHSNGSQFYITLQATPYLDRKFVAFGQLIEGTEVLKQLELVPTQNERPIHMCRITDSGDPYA
T5 sequence (Q9UNP9 131-301 K212A): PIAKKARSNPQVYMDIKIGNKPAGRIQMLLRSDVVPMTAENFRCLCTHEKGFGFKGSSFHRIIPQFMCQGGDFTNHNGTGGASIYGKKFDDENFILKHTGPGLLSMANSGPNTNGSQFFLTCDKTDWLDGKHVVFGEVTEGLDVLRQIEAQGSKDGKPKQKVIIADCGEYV
Chain of CypD (P30405 45-207): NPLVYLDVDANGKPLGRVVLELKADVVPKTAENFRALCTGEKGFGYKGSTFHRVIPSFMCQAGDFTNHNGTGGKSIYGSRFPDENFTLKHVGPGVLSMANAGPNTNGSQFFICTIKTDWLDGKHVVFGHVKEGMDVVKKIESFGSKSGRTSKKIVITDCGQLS
T3 sequence (P45877 24-212): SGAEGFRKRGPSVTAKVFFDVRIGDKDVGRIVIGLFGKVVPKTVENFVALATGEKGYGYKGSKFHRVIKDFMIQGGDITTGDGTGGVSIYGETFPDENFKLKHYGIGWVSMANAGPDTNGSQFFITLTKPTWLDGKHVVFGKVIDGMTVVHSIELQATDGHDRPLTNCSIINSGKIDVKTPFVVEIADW
T13 sequence (Q9H2H8 whole entry, the tested form may be a part): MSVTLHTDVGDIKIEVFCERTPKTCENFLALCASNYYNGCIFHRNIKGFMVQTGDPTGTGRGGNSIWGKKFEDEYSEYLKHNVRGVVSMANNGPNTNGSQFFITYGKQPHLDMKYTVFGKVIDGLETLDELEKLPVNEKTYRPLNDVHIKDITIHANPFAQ
T6 sequence (Q9UNP9 131-301 K217A): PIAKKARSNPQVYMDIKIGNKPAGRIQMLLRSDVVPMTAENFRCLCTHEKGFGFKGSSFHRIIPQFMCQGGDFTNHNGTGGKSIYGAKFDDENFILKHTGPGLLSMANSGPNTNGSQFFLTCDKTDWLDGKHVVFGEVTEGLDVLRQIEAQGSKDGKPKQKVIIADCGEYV
T1 sequence (P62937 whole entry, the tested form may be a part): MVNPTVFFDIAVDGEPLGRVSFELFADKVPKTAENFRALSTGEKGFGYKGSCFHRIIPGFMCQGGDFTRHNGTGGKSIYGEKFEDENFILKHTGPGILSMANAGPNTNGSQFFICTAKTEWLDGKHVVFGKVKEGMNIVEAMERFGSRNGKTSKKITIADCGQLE
T2 sequence (P23284 34-216): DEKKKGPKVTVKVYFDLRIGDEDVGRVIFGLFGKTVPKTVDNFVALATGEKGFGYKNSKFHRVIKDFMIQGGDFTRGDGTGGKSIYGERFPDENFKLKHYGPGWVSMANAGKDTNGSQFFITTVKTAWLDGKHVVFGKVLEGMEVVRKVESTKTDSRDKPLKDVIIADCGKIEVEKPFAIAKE
T14 sequence (Q8WUA2 whole entry): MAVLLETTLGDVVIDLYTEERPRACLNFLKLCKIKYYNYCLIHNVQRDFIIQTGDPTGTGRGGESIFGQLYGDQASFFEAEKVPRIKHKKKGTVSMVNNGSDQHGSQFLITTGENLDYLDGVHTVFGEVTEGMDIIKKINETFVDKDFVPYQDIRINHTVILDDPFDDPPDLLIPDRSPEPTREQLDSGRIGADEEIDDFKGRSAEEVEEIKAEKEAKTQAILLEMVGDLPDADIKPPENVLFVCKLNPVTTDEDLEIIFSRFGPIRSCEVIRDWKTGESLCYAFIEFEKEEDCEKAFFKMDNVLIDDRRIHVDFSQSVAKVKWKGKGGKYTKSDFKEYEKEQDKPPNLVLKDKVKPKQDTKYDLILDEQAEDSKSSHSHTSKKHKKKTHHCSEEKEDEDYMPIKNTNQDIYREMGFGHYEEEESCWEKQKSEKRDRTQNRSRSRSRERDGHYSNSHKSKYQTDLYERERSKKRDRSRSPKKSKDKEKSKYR
T4 sequence (Q9UNP9 131-301): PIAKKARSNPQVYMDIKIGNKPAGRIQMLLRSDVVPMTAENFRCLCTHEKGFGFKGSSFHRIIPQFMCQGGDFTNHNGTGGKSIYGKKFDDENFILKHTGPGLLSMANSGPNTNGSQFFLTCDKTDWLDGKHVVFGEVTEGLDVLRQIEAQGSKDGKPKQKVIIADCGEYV
T12 sequence (Q13356 280-457): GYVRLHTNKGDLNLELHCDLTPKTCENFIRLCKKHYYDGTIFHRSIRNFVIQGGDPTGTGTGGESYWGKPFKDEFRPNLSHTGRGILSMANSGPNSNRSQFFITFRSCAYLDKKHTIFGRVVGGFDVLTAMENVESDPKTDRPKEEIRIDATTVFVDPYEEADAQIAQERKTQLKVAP
T7 sequence (Q9UNP9 131-301 K218A): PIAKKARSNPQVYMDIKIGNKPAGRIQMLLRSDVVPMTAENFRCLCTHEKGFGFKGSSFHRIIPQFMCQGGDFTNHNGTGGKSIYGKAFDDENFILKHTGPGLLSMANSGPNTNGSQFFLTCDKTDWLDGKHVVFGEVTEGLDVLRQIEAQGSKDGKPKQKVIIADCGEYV
T9 sequence (O43447 whole entry, the tested form may be a part): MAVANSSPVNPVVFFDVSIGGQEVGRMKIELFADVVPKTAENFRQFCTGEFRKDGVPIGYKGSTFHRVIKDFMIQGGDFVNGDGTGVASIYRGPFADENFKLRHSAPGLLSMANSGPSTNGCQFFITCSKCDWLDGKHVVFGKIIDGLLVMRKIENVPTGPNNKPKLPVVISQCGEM
Chain of Cyp40 (Q08752 1-183): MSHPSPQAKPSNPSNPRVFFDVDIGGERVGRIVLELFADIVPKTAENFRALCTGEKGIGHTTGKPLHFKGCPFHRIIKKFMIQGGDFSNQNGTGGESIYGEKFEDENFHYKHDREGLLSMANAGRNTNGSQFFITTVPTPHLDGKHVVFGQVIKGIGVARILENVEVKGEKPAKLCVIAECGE
T17 sequence (Q6UX04 whole entry): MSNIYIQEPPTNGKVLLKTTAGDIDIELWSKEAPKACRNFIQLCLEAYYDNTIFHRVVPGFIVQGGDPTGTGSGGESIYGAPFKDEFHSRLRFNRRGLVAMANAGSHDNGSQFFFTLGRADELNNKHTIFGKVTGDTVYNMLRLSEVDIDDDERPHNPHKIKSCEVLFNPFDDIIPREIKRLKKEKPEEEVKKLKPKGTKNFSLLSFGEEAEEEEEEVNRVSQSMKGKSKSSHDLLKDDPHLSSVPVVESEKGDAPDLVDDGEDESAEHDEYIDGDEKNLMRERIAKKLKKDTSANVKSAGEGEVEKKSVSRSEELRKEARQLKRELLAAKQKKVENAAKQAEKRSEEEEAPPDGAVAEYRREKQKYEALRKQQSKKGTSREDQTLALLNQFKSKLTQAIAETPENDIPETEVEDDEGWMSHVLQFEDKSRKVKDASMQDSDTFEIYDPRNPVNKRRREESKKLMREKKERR

SMILES: O=C1/C=C/C(=O)N2CCC[C@](Cc3ccccc3)(C2)C(=O)N[C@@H](Cc2ccco2)C(=O)NCc2ccccc2CC(=O)N[C@H](C(=O)NCCCOCCOCCOCCCNC(=O)c2ccc3c(c2)C(=O)OC32c3ccc(O)cc3Oc3cc(O)ccc32)CCN1 [Compound A26-Fl]
- Kd (CypA): 51 ± 0.7 nM
- Kd (CypB): 34 ± 5 nM
- Kd (CypC): 150 ± 30 nM
- Kd (CypE): 100 ± 30 nM
- Kd (CypE K212A): 130 ± 30 nM
- Kd (CypE K217A): 70 ± 10 nM
- Kd (CypE K218A): 70 ± 20 nM
- Kd (CypG): 170 ± 10 nM
- Kd (CypH): 600 ± 100 nM
- Kd (NKTR): 1500 ± 400 nM
- Kd (PPIL1): 230 ± 40 nM
- Kd (PPIL2): > 10000 nM
- Kd (PPIL3): 1700 ± 600 nM
- Kd (PPIL4(Full Length)): > 1000 nM
- Kd (PPIL6(C-Myc/DDK)): > 1000 nM
- Kd (PPWD1): 1100 ± 600 nM
- Kd (SDCCAG-10(GST)): > 1000 nM
- Kd (Cyp40): 170 ± 20 nM
- Kd (CypD): 17 ± 2 nM
